Test results published in US20230136569A1, “USE OF NMN TO REDUCE IMMUNODEPRESSION AND IMMUNOSENESCENCE” (NUVAMID SA, priority 2020, published 2023).

How the values were obtained:
Assay type in all cases: in vivo
[1] = test system: T cells present in the spleen; experiment: Flow cytometry of CD4+ and CD8+ T cells in the spleen of old mice; conditions: 500 mg/kg p.o.; for number of CD4+ effector T cells: α-NMN 4 weeks, β-NMN 6 weeks, compared with Group 3 (so in the source)
Method: The administering of β-NMN at 500 mg/kg, of α-NMN at 500 mg/kg and of the vehicle (water) was obtained via oral route (p.o) in the drinking water to young and old mice. The solutions were prepared by dissolving the powder of β-NMN or α-NMN in the vehicle (water). The study comprised 4 groups each having 6 mice: • Group 1: young mice (aged 10 weeks)+drinking water (vehicle) • Groupe 2: old mice (aged 15 months)+drinking water (vehicle) • Group 3: old mice (aged 15 months)+compound I-B (alpha-NMN) in the drinking water • Group 4: old mice (aged 15 months)+compound I-A (beta-NMN) in the drinking water The water consumption of the mice was assessed per cage every other day. The mice were weighed every week. The mice in Group 3 were sacrificed after 4 weeks for organ collection and characterisation of T cell function. The mice in Group 4 were sacrificed after 6 weeks for organ collection and characterisation of T cell function. On the day of sacrifice, the mice were anaesthetised with Vetoflurane (isoflurane) and blood samples were taken from the retroorbital sinus. The blood was incubated for 30 minutes at ambient temperature and then centrifuged at 1300 g for 10 minutes. After sacrificing of the mice, the spleen, thymus, and bone marrow of each animal were removed. The thymus was weighed and measured to evaluate involution thereof. For illustration purposes, photos of the thymus were taken on 5 animals per group. The thymus was divided into two parts: one part was treated with formol for histological examination. The second part was treated for characterisation of the immune cells. For characterisation of the cells, the thymus and spleen were crushed through a sieve of […] over a 50 mL tube with a syringe plunger. The bone marrow was rinsed with RPMI culture medium using a needle and syringe. The cell suspension was then centrifuged at 400 g for 5 minutes at 4° C. Lysis of the red blood cells was also performed before the cell count and use thereof for cytometry. The isolated cells of the spleen, thymus and bone marrow were marked with antibodies in accordance with the following tables to identify the proportion of effector and memory naive T and B cells. The following T cells of the spleen were also examined for characterisation as a function of the combination of proteins on the surface thereof: [table] Measured parameters: The results of flow cytometry are expressed in number or as a proportion of cells per organ. The weight of the thymus is expressed in grams.

thymus = experiment: Weight and size of the thymus (thymic involution) in old mice; conditions: old mice (15 months), 500 mg/kg p.o. in drinking water; α-NMN 4 weeks, β-NMN 6 weeks; vs non-treated old mice (FIG. 2)
Method: The administering of β-NMN at 500 mg/kg, of α-NMN at 500 mg/kg and of the vehicle (water) was obtained via oral route (p.o) in the drinking water to young and old mice. The solutions were prepared by dissolving the powder of β-NMN or α-NMN in the vehicle (water). The study comprised 4 groups each having 6 mice: • Group 1: young mice (aged 10 weeks)+drinking water (vehicle) • Groupe 2: old mice (aged 15 months)+drinking water (vehicle) • Group 3: old mice (aged 15 months)+compound I-B (alpha-NMN) in the drinking water • Group 4: old mice (aged 15 months)+compound I-A (beta-NMN) in the drinking water The water consumption of the mice was assessed per cage every other day. The mice were weighed every week. The mice in Group 3 were sacrificed after 4 weeks for organ collection and characterisation of T cell function. The mice in Group 4 were sacrificed after 6 weeks for organ collection and characterisation of T cell function. On the day of sacrifice, the mice were anaesthetised with Vetoflurane (isoflurane) and blood samples were taken from the retroorbital sinus. The blood was incubated for 30 minutes at ambient temperature and then centrifuged at 1300 g for 10 minutes. […] The thymus was weighed and measured to evaluate involution thereof. […] Measured parameters: The results of flow cytometry are expressed in number or as a proportion of cells per organ. […]

[2] = test system: CD4+ T cells producing IFNγ or IL10; experiment: Cytokine production by splenocytes stimulated with anti-CD3/CD28 beads for 18 h; conditions: splenocytes of treated old mice, anti-CD3/CD28 beads 18 h (FIG. 10A)
Method: The total splenocytes were stimulated with beads coated with anti-CD3/CD28 for 18 h. As shown in FIGS. 10A and 10B, ageing reduced the proportion of cells producing IFNγ and IL10 when simulated with beads coated with anti-CD3/CD28.

[3] = test system: old mice (aged 15 months); experiment: Study of the effects on immunosenescence in old mice (overall conclusion); conditions: old mice (15 months), 500 mg/kg p.o. in drinking water; concluding statement
Method: The administering of β-NMN at 500 mg/kg, of α-NMN at 500 mg/kg and of the vehicle (water) was obtained via oral route (p.o) in the drinking water to young and old mice. The solutions were prepared by dissolving the powder of β-NMN or α-NMN in the vehicle (water). The solution was used at ambient temperature for no more than 2 days and was freshly prepared for each new administration. The mice were weighed each week to adapt the dose of the compound to be administered. Throughout the entire phase, a standard food diet and tap water were provided ad libitum. The study comprised 4 groups each having 6 mice: • Group 1: young mice (aged 10 weeks)+drinking water (vehicle) • Groupe 2: old mice (aged 15 months)+drinking water (vehicle) • Group 3: old mice (aged 15 months)+compound I-B (alpha-NMN) in the drinking water • Group 4: old mice (aged 15 months)+compound I-A (beta-NMN) in the drinking water The water consumption of the mice was assessed per cage every other day. The mice were weighed every week. The mice in Group 3 were sacrificed after 4 weeks for organ collection and characterisation of T cell function. The mice in Group 4 were sacrificed after 6 weeks for organ collection and characterisation of T cell function. […] The thymus was weighed and measured to evaluate involution thereof. […]

Row | Compound | number of CD4+ memory T cells in the spleen ([1]; 6 weeks, compared with the other groups (FIG. 7B)) | total number of CD4+ T cells in the spleen ([1]; 6 weeks, compared with the other groups of mice (FIG. 7A)) | number of CD4+ effector T cells [1] | weight and size of the thymus (thymus) | response to stimulation: proportion of cells producing IFNγ [2] | signs of immunosenescence [3] | number of naive CD8+ T cells in the spleen ([1]; 4 weeks (FIG. 8A)) | levels of effector CD8+ T cells in the spleen ([1]; 4 weeks (FIG. 8B)) | levels of memory CD8+ T cells in the spleen ([1]; 4 weeks (FIG. 8C as printed)) | levels of effector memory CD8+ T cells in the spleen ([1]; 4 weeks (FIG. 8D as printed))
1 | NC(=O)c1ccc[n+]([C@@H]2O[C@H](COP(=O)([O-])O)[C@@H](O)[C@H]2O)c1 (stereo in doubt) [I-A, nicotinamide mononucleotide] | increase in the memory T cells that is significant | significantly increased | increase in the number of CD4+ effector T cells | significant increase in the size of the thymus | lack of response | significant decrease in the signs of immunosenescence | – | – | – | –
2 | NC(=O)c1ccc[n+]([C@H]2O[C@H](COP(=O)([O-])O)[C@@H](O)[C@H]2O)c1 (stereo in doubt) [I-B, alpha nicotinamide mononucleotide] | – | – | increase in the number of CD4+ effector T cells | did not allow an increase in the volume or size of the thymus | the response to stimulation was lower | significant decrease in the signs of immunosenescence | does not modify the number of naive CD8+ T cells | restoring of the levels of effector CD8+ T cells | restoring of the levels | restoring of the levels
